US20120277211A1, “METHODS AND COMPOSITIONS FOR THE TREATMENT OF PSYCHOTIC DISORDERS THROUGH THE IDENTIFICATION OF THE SULT4A1-1 HAPLOTYPE” (priority 2009, published 2012)
Marks after values point to notes of the source that are not given here.

Legend:
[1] = system: Caucasian schizophrenia patients; experiment: CATIE: hospitalization due to exacerbation of psychosis by SULT4A1-1 status; format: in vivo, human
Description: To assess if SULT4A1-1 status impacts the risk of hospitalization in Caucasians, the inventors assigned SULT4A1-1 status to each CATIE subject and evaluated hospitalization events due to exacerbation of psychosis. For this analysis, the inventors assigned a dichotomous value (positive or negative) for hospitalization status to subjects in each phase of the trial based on only the first hospitalization event for a given patient in that phase. Patients participating in Phases 1, 2, and/or 3 were included in the totals for the appropriate drug.
A Kaplan-Meier survival analysis was performed to determine whether there was a difference between the survival (hospitalization) rates for the SULT4A1-1 negative and SULT4A1-1 positive patient populations treated with each of the atypical antipsychotics. Survival plots model the fraction of the population that survived (i.e., no hospitalization event) as a function of time.

[2] = system: Caucasian schizophrenia patients; experiment: CATIE Phase I: change in total PANSS (LOCF) by SULT4A1-1 haplotype status, Caucasians; format: in vivo, human; conditions: for Number of individuals with change in total PANSS ≦−20% (responders) / Number of individuals with change in total PANSS ≧−20% (non-responders) / Responders: CATIE Caucasians, LOCF; for Responders: change in PANSS ≦−20%; for Effect size: olanzapine SULT4A1-1+ vs comparator group / Mean difference (95% CI) in delta PANSS: olanzapine SULT4A1-1+ minus comparator group: comparator = labelled drug in SULT4A1-1+ patients
Description: There are several different metrics for quantifying response in clinical trials of antipsychotic medications. The most commonly used psychometric instrument is the Positive and Negative Syndrome Scale (PANSS), a 30-item semi-quantitative instrument scored by clinical professionals (Kay et al., 1987). The greater the decrease in PANSS score, the better the clinical response. The most direct measure of clinical response is absolute change in PANSS score. In addition to absolute change, the improvement is often reported as a percentage change from baseline PANSS score.
A decrease of at least 20% in total PANSS is one commonly used threshold for response (Leucht et al., 2009).
The design of the CATIE study has been described in detail by others (Lieberman et al., 2005; Stroup et al., 2003). […] A total of 738 subjects consented to provide DNA for genetic study. […] Retrospective genetic analyses, judged to be exempt from human studies requirements by an IRB, were conducted in the current study.
All tested patients were studied using well established clinical endpoints comparing baseline, intermediate, and last observation carried forward (LOCF) for the PANSS scores using CATIE data. LOCF analysis is a commonly used clinical endpoint for clinical trials for neuropsychiatric drugs, with changes in PANSS scores of between negative 20% and negative 30% used as typical endpoints to indicate clinically significant response (Leucht et al., 2009). To remove time on drug as a variable for the CATIE trial, analysis was limited to only those patients who were randomized to a different drug following the initial washout period (drug switchers).
The CATIE clinical data set included baseline PANSS scores based on clinical assessments prior to initiation of the assigned therapy, but following the washout period for any patients previously on antipsychotic medication. Follow up PANSS data for the CATIE trial were collected at each visit as described in detail by others (Stroup et al., 2003).
Since follow-up on subjects was not done at uniform time intervals, analysis was done using the last observation for each patient in treatment Phase I of the trial as the measure of response (last observation carried forward, LOCF). Main effect and interaction terms between the SULT4A1-1 haplotype and drug therapy were included in the linear model. A pre-determined set of contrasts for differences in percent change PANSS by haplotype within each drug therapy (three comparisons) and by drug therapy within each haplotype (six comparisons) were evaluated, with adjustment for multiple-comparisons using the step-up false-discovery rate (FDR) controlling procedure (Benjamini and Hochberg, 1995). A sub-analysis omitting those patients who were randomized to the same antipsychotic drug therapy was also conducted.

schizophrenia patients = experiment: CATIE: months of successful treatment measured by the CGI scale (TMSUCC1); format: in vivo, human
Description: The CATIE clinical data set included Clinical Global Impression (CGI) Scale, an observer-provided assessment of the psychiatric health of the patient (Stroup et al., 2003; Guy 1976). Patients are rated with the CGI Scale from 1 to 7, with higher scores indicating greater severity of illness. The CATIE study provided a response variable that measured the time (in months) of successful treatment as measured by the CGI scale (“TMSUCC1” in the CATIE data).

[3] = system: unsegmented patient populations; conditions: cited from earlier work
[4] = system: African American schizophrenia patients; experiment: CATIE: change in total PANSS (LOCF) by SULT4A1-1 haplotype status, African Americans; format: in vivo, human; conditions: for Number of individuals with change in total PANSS ≦−20% (responders) / Number of individuals with change in total PANSS ≧−20% (non-responders): LOCF
Method: The design of the CATIE study has been described in detail by others (Lieberman et al., 2005; Stroup et al., 2003). […] A total of 738 subjects consented to provide DNA for genetic study. […] Retrospective genetic analyses, judged to be exempt from human studies requirements by an IRB, were conducted in the current study. All tested patients were studied using well established clinical endpoints comparing baseline, intermediate, and last observation carried forward (LOCF) for the PANSS scores using CATIE data. […] To remove time on drug as a variable for the CATIE trial, analysis was limited to only those patients who were randomized to a different drug following the initial washout period (drug switchers).

[5] = system: Caucasian schizophrenia patients; experiment: CATIE: time to discontinuation for all causes by SULT4A1-1 status; format: in vivo, human
Description: The primary endpoint for the CATIE study was time to discontinuation for all causes (Lieberman et al., 2005). Thus the inventors evaluated the effect of SULT41-1 status on this important parameter.

[6] = Unsegmented, Phases 1, 2 and/or 3, first event
[7] = SULT4A1-1 positive, randomized to a different drug

Compound | HOSP, number of patients hospitalized ([1]; SULT4A1-1 negative) | HOSP, rate of hospitalization ([1]; SULT4A1-1 negative) [%] | HOSP, number of patients hospitalized ([1]; SULT4A1-1 positive) | HOSP, rate of hospitalization ([1]; SULT4A1-1 positive) [%] | HOSP, rate of hospitalization ([1]; Unsegmented) [%] | HOSP, number of patients hospitalized [1, 6] | DELTA PANSS % (mean change in PANSS score from baseline to LOCF) ([2]; SULT4A1-1 negative) | Number of individuals with change in total PANSS ≦−20% (responders) ([2]; SULT4A1-1 negative) | Number of individuals with change in total PANSS ≧−20% (non-responders) ([2]; SULT4A1-1 negative) | Responders ([2]; SULT4A1-1 negative) [%**] | DELTA PANSS % (mean change in PANSS score from baseline to LOCF) ([2]; SULT4A1-1 positive) | Number of individuals with change in total PANSS ≧−20% (non-responders) ([2]; SULT4A1-1 positive) | Number of individuals with change in total PANSS ≦−20% (responders) [2, 7] | Responders ([2]; SULT4A1-1 positive) [%] | Effect size: olanzapine SULT4A1-1+ vs comparator group [2] | Mean difference (95% CI) in delta PANSS: olanzapine SULT4A1-1+ minus comparator group [2] | Length of successful treatment (CGI Months), Mean (schizophrenia patients; SULT4A1-1 negative) [Months] | Length of successful treatment (CGI Months), Mean (schizophrenia patients; SULT4A1-1 positive) | Length of successful treatment (CGI Months), Mean (schizophrenia patients; Unsegmented) [Months] | Responders ([4]; SULT4A1-1 negative) [%] | other results
O=C1Cc2cc(CCN3CCN(c4nsc5ccccc45)CC3)c(Cl)cc2N1 [Ziprasidone] | 11 | 13.4 | 2 | 7.1 | 11.8 | 13 | −4*** % | 6 | 32 | 15.7 | −8* % | 7 | 3 | 30.0 | 0.77 | −16.1 (−32.7 to 0.5) | 4.51 | 8.36^d Months | 5.36 | 15.4 | Kaplan-Meier: difference between survival (no hospitalization) rates of SULT4A1-1 negative and positive patients ([1]; per drug): not statistically significant; Mean difference in total PANSS score between olanzapine and labelled drug, CATIE SULT4A1-1+ ([2]; SULT4A1-1+): −17.9; Mean difference in total PANSS score between olanzapine and labelled drug, CATIE SULT4A1-1− ([2]; SULT4A1-1−): −2.1; Mean difference in total PANSS score between olanzapine and labelled drug, CATIE unsegmented ([2]; Unsegmented): −4.9; Effect Size attributable to SULT4A1-1 status in CATIE ([2]; olanzapine-treated SULT4A1-1 positive versus labelled drug-treated SULT4A1-1 positive): −0.77^b; Effect Size vs. FGA ([3]; first generation antipsychotics, Davis et al. (2003)): −0.04; Effect Size vs. Placebo ([3]; meta-analysis, Leucht et al. (2009), negative = greater reduction in PANSS): −0.48; Mean difference in total PANSS score between olanzapine and labelled drug, Meta-analysis ([3]; unsegmented populations, Leucht et al. (2009)): −8.3; Number of individuals with change in total PANSS ≦−20% (responders) ([4]; SULT4A1-1 negative): 4; Number of individuals with change in total PANSS ≧−20% (non-responders) ([4]; SULT4A1-1 negative): 22; Responders ([4]; SULT4A1-1 positive): 0%; Number of individuals with change in total PANSS ≦−20% (responders) ([4]; SULT4A1-1 positive): 0; Number of individuals with change in total PANSS ≧−20% (non-responders) ([4]; SULT4A1-1 positive): 3; Time to discontinuation, mean ([5]; SULT4A1-1 negative): 8.2*** Months; Time to discontinuation, mean ([5]; SULT4A1-1 positive): 11.7 Months
OCCN1CCN(CCCN2c3ccccc3Sc3ccc(Cl)cc32)CC1 [Perphenazine] | 9 | 13.4 | 1 | 7.1 | 12.3 | 10 | −3*** % | 16 | 47 | 25.4 | −10* % | 9 | 5 | 35.7 | 0.68 | −14.2 (−29.8 to 1.4) | 7.03 | 5.29 Months | 6.72 | 27.0 | Number of individuals with change in total PANSS ≦−20% (responders) ([4]; SULT4A1-1 negative): 10; Number of individuals with change in total PANSS ≧−20% (non-responders) ([4]; SULT4A1-1 negative): 27; Responders ([4]; SULT4A1-1 positive): 0%; Number of individuals with change in total PANSS ≦−20% (responders) ([4]; SULT4A1-1 positive): 0; Number of individuals with change in total PANSS ≧−20% (non-responders) ([4]; SULT4A1-1 positive): 2; Time to discontinuation, mean ([5]; SULT4A1-1 negative): 10.6* Months; Time to discontinuation, mean ([5]; SULT4A1-1 positive): 7.6** Months
